# Results as given in the supplement of paper PMC13380429.
# Columns and labels:
# Conditions in all cases: 72 h
# [1] = test system: Calu-3; assay: drug sensitivity score (DSS) for viability; higher = more toxic; extreme values may be limits of the assay
# [2] = test system: Caco-2; assay: as above
# [3] = test system: HepG2; assay: as above
# [4] = test system: U2OS; assay: as above
# [5] = test system: Vero E6; assay: as above
# [6] = test system: Calu-3; assay: cell viability relative to DMSO; higher = less toxic
# [7] = test system: Caco-2; assay: as above
# [8] = test system: HepG2; assay: as above
# [9] = test system: U2OS; assay: as above
# [10] = test system: Vero E6; assay: as above
# [11] = test system: Calu-3; assay: relative viability EC50 (midpoint between 100% and the lowest measured viability); higher = less toxic
# [12] = test system: Caco-2; assay: as above
# [13] = test system: HepG2; assay: as above
# [14] = test system: U2OS; assay: as above
# [15] = test system: Vero E6; assay: as above
Structure (SMILES),drug sensitivity score [1],drug sensitivity score [2],drug sensitivity score [3],drug sensitivity score [4],drug sensitivity score [5],cell viability ([6]; 1 nM) [%],cell viability ([6]; 10 nM) [%],cell viability ([6]; 100 nM) [%],cell viability ([6]; 1000 nM) [%],cell viability ([6]; 10000 nM) [%],cell viability ([7]; 1 nM) [%],cell viability ([7]; 10 nM) [%],cell viability ([7]; 100 nM) [%],cell viability ([7]; 1000 nM) [%],cell viability ([7]; 10000 nM) [%],cell viability ([8]; 1 nM) [%],cell viability ([8]; 10 nM) [%],cell viability ([8]; 100 nM) [%],cell viability ([8]; 1000 nM) [%],cell viability ([8]; 10000 nM) [%],cell viability ([9]; 1 nM) [%],cell viability ([9]; 10 nM) [%],cell viability ([9]; 100 nM) [%],cell viability ([9]; 1000 nM) [%],cell viability ([9]; 10000 nM) [%],cell viability ([10]; 1 nM) [%],cell viability ([10]; 10 nM) [%],cell viability ([10]; 100 nM) [%],cell viability ([10]; 1000 nM) [%],cell viability ([10]; 10000 nM) [%],relative viability EC50 [11] [µM],relative viability EC50 [12] [µM],relative viability EC50 [13] [µM],relative viability EC50 [14] [µM],relative viability EC50 [15] [µM]
Cc1cccc(-c2[nH]c(CNc3ccccc3F)nc2-c2ccc3ncnn3c2)n1 [EW-7197],0,0,0,0.1,0,97.3,88.4,96.9,114,105,95.7,96.4,94.1,109,99.4,95.1,104,106,103,93.3,99.1,99.4,94.4,95.5,85.5,102,105,102,95.4,98.7,> 10,> 10,> 10,> 10,> 10
O=C(O)c1cc(O)c2c(c1)C(=O)c1cccc(O)c1C2=O [rhein],0,0,0.2,0,0,90,96.6,106,98.5,111,100,102,97.6,95.7,98.1,110,95.5,106,93.3,88.6,103,98.4,99,98.2,102,98.7,92.7,95.5,99.1,99.2,> 10,> 10,> 10,> 10,> 10
C[C@@]1(c2cc(-c3cncnc3)c(F)cc2F)CCSC(N)=N1,0,0,0,0,0,98,104,102,101,101,98.7,92.8,92.3,95.1,99.4,106,112,101,108,97.3,102,97.5,102,97.4,100,105,103,105,101,96,> 10,> 10,> 10,> 10,> 10
CC(C)[C@]12O[C@H]1[C@@H]1O[C@]13[C@]1(O[C@H]1C[C@H]1C4=C(CC[C@@]13C)C(=O)OC4)[C@@H]2O [triptolide],27.1,29.2,39.2,38.2,35.8,108,71.5,25.8,34.9,34.2,84.5,56.5,24.7,24.7,27.6,79.4,30,4.6,7.7,6.2,94,34.2,1.5,1.8,2.1,101,55.4,1.6,5.4,5.1,0.0121,0.0058,0.0036,0.0063,0.0108
NC[C@@H](O)CC(=O)O [aminohydroxybutyric-acid],0,0,0,0,0,98.4,103,97.7,95.1,104,92.1,91,86.2,103,105,102,91.7,108,97.2,104,93.6,99.7,96.4,106,102,98.6,91.9,93.3,92.4,102,> 10,> 10,> 10,> 10,> 10
CCCCCCCCCCCCCCCCCCCCCC(=O)Nc1ccn([C@@H]2O[C@H](CO)[C@@H](O)[C@@H]2O)c(=O)n1 [enocitabine],0,0,0.4,0,0,99.2,99,104,94.9,95.7,78.8,67.8,90.5,114,92.3,98,102,100,112,79.2,94.1,95.2,95.4,93.6,102,95.6,97.2,91.9,94,107,> 10,> 10,> 10,> 10,> 10
CN(C)C/C=C/C(=O)Nc1cccc(C(=O)Nc2cccc(Nc3ncc(Cl)c(-c4c[nH]c5ccccc45)n3)c2)c1 [THZ2],14.9,7.1,24.2,16.8,5.9,103,104,83.1,33.5,42.9,97.8,99.9,98.4,80.9,25.6,114,89.4,44.7,3.5,2.7,97.8,102,96.6,10.2,8.3,104,103,103,95,6.5,0.154,1.53,0.0771,0.303,2.75
CC(C)c1ccc(CC(=O)N2CCC[C@@H](c3cccc(OC(C)(C)C(=O)O)c3)C2)cc1,0,0,0,0,0,87.3,94.5,104,108,98.6,92.6,100,93.2,97.6,96.2,98.3,106,104,106,108,103,99.5,99.7,99.6,103,106,103,101,97.4,96.8,> 10,> 10,> 10,> 10,> 10
Nc1nc(=O)c2nc(CNc3ccc(C(=O)N[C@@H](CCC(=O)O)C(=O)O)cc3)cnc2[nH]1 [folic-acid],0,0,0,0,0,93.5,102,88.1,106,97.8,89.2,103,101,95.3,90.7,106,101,99.8,97.2,99.4,97.7,101,97,99.4,96.4,99.9,102,97,101,92.8,> 10,> 10,> 10,> 10,> 10
CS(=O)(=O)c1cc(F)cc2c3c(n(Cc4ccc(Cl)cc4)c12)[C@@H](CC(=O)O)CC3 [laropiprant],0,0,0,0,0,101,95.4,90.3,110,94.6,95.4,102,91,95.4,88.5,99,94.2,100,98.6,101,100,101,98.3,106,97.5,102,99.6,106,98.2,91.9,> 10,> 10,> 10,> 10,> 10
CC1=C(C)C(=O)C(C(CCCCCC(=O)O)c2ccccc2)=C(C)C1=O (stereo not given) [seratrodast],0,0,0,0,0,104,91,99,99.2,104,91,92.7,104,90.4,95.3,98.7,98.7,101,98.1,103,99.8,95.7,99.6,93.2,98.5,97.7,99.5,96.4,96.9,98.2,> 10,> 10,> 10,> 10,> 10
CCCCOC(=O)c1ccc(N)cc1 [butamben],0,0,0,0,0.7,98.6,96.7,94.2,93.7,94.1,108,94,95.6,90.9,97.5,104,93.6,124,112,124,98.7,96.5,102,94.9,103,94.2,102,96.3,92.8,82.3,> 10,> 10,> 10,> 10,> 10
CN(C(=O)CCCOc1ccc2[nH]c(=O)ccc2c1)C1CCCCC1 [cilostamide],0,0,0,0,0,92.8,92.9,94.6,85.3,105,100,94.7,99.2,96.9,90.6,97.2,98.7,98.8,110,110,102,95.5,101,92.9,97,91.7,98.3,89.8,98.1,104,> 10,> 10,> 10,> 10,> 10
CC(=O)[C@]1(O)Cc2c(O)c3c(c(O)c2[C@@H](O[C@H]2C[C@H](N)[C@H](O)[C@H](C)O2)C1)C(=O)c1ccccc1C3=O [idarubicin],21,20.7,32.2,22.2,22,104,90.1,48.6,27.7,9.7,103,96.1,62.1,10.8,17.4,94.8,50.3,29.7,0,0.1,100,86.3,60.7,1,0,106,94,58.2,6.1,2.9,0.0921,0.117,0.016,0.128,0.12
